Measured values as given in PMC6009961, “Novel 1-(2-pyrimidin-2-yl)piperazine derivatives as selective monoamine oxidase (MAO)-A inhibitors” (Journal of Enzyme Inhibition and Medicinal Chemistry, 2017).
pIC50: −log10 of the molar value. “Also recorded” adds a separate entry of the source.

How the values were obtained:
Format in all cases: biochemical
[1] = target: T1, human recombinant MAO-B (Homo sapiens, UniProt P27338); test: MAO activity assay, fluorimetric, kynuramine substrate (MAO-B)
T1 construct: purchased Sigma-Aldrich Chemicals (St. Louis, MO)
T1 sequence (P27338 1-520): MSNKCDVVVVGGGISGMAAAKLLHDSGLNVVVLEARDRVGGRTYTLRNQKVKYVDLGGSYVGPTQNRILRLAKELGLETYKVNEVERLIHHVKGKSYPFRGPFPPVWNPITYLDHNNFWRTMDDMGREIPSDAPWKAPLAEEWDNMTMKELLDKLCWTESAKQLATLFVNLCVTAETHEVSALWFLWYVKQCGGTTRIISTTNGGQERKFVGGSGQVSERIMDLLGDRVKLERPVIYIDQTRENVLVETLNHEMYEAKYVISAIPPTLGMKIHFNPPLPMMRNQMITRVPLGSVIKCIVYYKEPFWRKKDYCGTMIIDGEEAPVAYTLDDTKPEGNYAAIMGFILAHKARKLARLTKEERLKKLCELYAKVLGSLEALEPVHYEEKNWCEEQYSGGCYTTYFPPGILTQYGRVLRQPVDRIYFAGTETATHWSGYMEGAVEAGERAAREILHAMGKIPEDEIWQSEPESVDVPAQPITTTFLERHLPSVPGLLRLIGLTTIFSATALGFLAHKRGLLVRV

[2] = target: T2, MAO-A enzyme (Homo sapiens, UniProt P21397); test: MAO activity assay, fluorimetric, kynuramine substrate (MAO-A); settings: for MAO-A versus MAO-B selectivity: from inhibition rates at 10^−4 M
T2 construct: purchased Sigma-Aldrich Chemicals (St. Louis, MO)
T2 sequence (P21397 1-527): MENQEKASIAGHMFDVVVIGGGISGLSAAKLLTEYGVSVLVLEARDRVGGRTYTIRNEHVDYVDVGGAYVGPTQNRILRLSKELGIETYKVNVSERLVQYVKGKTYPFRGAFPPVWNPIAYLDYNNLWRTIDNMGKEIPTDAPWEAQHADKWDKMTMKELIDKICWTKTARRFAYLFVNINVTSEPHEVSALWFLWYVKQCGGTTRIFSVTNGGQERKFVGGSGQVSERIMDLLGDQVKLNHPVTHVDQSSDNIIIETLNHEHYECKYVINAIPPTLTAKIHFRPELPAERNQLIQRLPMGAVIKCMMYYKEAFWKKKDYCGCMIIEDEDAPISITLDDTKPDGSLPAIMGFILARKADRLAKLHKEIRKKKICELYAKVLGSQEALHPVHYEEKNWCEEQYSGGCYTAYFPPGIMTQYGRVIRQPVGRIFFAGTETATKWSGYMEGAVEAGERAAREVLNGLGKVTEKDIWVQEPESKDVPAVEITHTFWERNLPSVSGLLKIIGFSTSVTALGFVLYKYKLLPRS

[3] = target: T2, MAO-A enzyme; test: MAO-A enzyme kinetics (Lineweaver-Burk plots)
Description: The nature of MAO-A inhibition, caused by this compound, was investigated by the graphical analysis of steady-state inhibition data.
Figure 2. […] Substrate (kynuramine) concentrations used: 40, 20, 10, 5, 2.5 and 1.25 μM. 1/V: 1/velocity of reaction [1/(nmoles/min/mg protein)], 1/S: 1/substrate concentration (1/μM).
The same materials were used in MAO enzyme kinetic assay. The compound 2e was prepared at IC50 concentration and then added to the wells (100 µL/well). Stock solution (25 mM) of kynuramine was diluted to final concentrations of 40, 20, 10, 5, 2.5 and 1.25 µM and then added to the wells (50 µL/well). After MAO-A enzyme was added to the plate (50 µL/well), incubation period at 37 °C for 20 min was started. The plate was read at 310/340 nm excitation/emission wavelength pair[31]. Control measurement without inhibitor was also determined simultaneously. The results were analyzed in Lineweaver–Burk plots using Microsoft Office Excel 2013.

Compound | pIC50 [1] | MAO B inhibition % ([1]; 10^−3 M) [%] | MAO B inhibition % ([1]; 10^−4 M) [%] | pIC50 [2] | MAO-A inhibition % ([2]; 10^−3 M) [%] | MAO-A inhibition % ([2]; 10^−4 M) [%] | nature of MAO-A inhibition ([3]; Lineweaver–Burk plots, kynuramine 40-1.25 μM) | Vmax ([3]; nonlinear regression, MAO-A, kynuramine) | MAO-A inhibition % ([2]; 10^−5 M) [%] | MAO-A inhibition % ([2]; 10^−6 M) [%] | MAO-A inhibition % ([2]; 10^−7 M) [%] | MAO-A inhibition % ([2]; 10^−8 M) [%] | MAO-A inhibition % ([2]; 10^−9 M) [%] | MAO-A versus MAO-B selectivity [2]
CN1CCN(C(=S)SCC(=O)N2CCN(c3ncccn3)CC2)CC1 [Compound 2a, 2-[4-(Pyrimidin-2-yl)piperazin-1-yl]-2-oxoethyl 4-methylpiperazine-1-carbodithioate] | < 3.00 | 10.23 ± 0.31 | 5.37 ± 0.22 | < 3.00 | 12.84 ± 0.59 | 7.33 ± 0.19 | – | – | – | – | – | – | – | –
CCN1CCN(C(=S)SCC(=O)N2CCN(c3ncccn3)CC2)CC1 [Compound 2b, 2-[4-(Pyrimidin-2-yl)piperazin-1-yl]-2-oxoethyl 4-ethylpiperazine-1-carbodithioate] | < 3.00 | 10.08 ± 0.42 | 5.65 ± 0.14 | < 3.00 | 11.52 ± 0.38 | 6.86 ± 0.21 | – | – | – | – | – | – | – | –
O=C(CSC(=S)N1CCN(CCO)CC1)N1CCN(c2ncccn2)CC1 [Compound 2c, 2-[4-(Pyrimidin-2-yl)piperazin-1-yl]-2-oxoethyl 4-(2-hydroxyethyl)piperazine-1-carbodithioate] | < 3.00 | 12.30 ± 0.48 | 7.39 ± 0.25 | < 3.00 | 15.88 ± 0.55 | 9.27 ± 0.27 | – | – | – | – | – | – | – | –
CN(C)CCN1CCN(C(=S)SCC(=O)N2CCN(c3ncccn3)CC2)CC1 [Compound 2d, 2-[4-(Pyrimidin-2-yl)piperazin-1-yl]-2-oxoethyl 4-(2-(dimethylamino)ethyl)piperazine-1-carbodithioate] | < 3.00 | 14.37 ± 0.58 | 8.40 ± 0.23 | < 3.00 | 18.74 ± 0.52 | 7.39 ± 0.30 | – | – | – | – | – | – | – | –
O=C(CSC(=S)N1CCN(C2CCCCC2)CC1)N1CCN(c2ncccn2)CC1 [Compound 2e, 2-[4-(Pyrimidin-2-yl)piperazin-1-yl]-2-oxoethyl 4-cyclohexylpiperazine-1-carbodithioate] | < 3.00 | 12.60 ± 0.45 | 5.22 ± 0.18 | < 3.00 | 16.75 ± 0.42 | 5.90 ± 0.15 | – | – | – | – | – | – | – | –
O=C(CSC(=S)N1CCN(c2ccccc2)CC1)N1CCN(c2ncccn2)CC1 [Compound 2f, 2-[4-(Pyrimidin-2-yl)piperazin-1-yl]-2-oxoethyl 4-phenylpiperazine-1-carbodithioate] | < 4.00 | – | 31.15 ± 0.67 | < 3.00 | 33.33 ± 1.30 | 31.25 ± 0.88 | – | – | – | – | – | – | – | –
Cc1ccc(N2CCN(C(=S)SCC(=O)N3CCN(c4ncccn4)CC3)CC2)cc1 [Compound 2g, 2-[4-(Pyrimidin-2-yl)piperazin-1-yl]-2-oxoethyl 4-(p-tolyl)piperazine-1-carbodithioate] | < 3.00 | 18.20 ± 0.82 | 10.76 ± 0.33 | < 3.00 | 37.50 ± 1.42 | 33.33 ± 0.99 | – | – | – | – | – | – | – | –
O=C(CSC(=S)N1CCN(c2ccc(Cl)cc2)CC1)N1CCN(c2ncccn2)CC1 [Compound 2h, 2-[4-(Pyrimidin-2-yl)piperazin-1-yl]-2-oxoethyl 4-(4-chlorophenyl)piperazine-1-carbodithioate] | < 3.00 | 40.98 ± 1.20 | 31.15 ± 1.07 | < 3.00 | 13.45 ± 0.38 | 6.70 ± 0.22 | – | – | – | – | – | – | – | –
O=C(CSC(=S)N1CCN(c2ccc(F)cc2)CC1)N1CCN(c2ncccn2)CC1 [Compound 2i, 2-[4-(Pyrimidin-2-yl)piperazin-1-yl]-2-oxoethyl 4-(4-fluorophenyl)piperazine-1-carbodithioate] | < 3.00 | 44.26 ± 1.13 | 27.86 ± 0.66 | < 4.00 | – | 39.58 ± 0.95 | – | – | – | – | – | – | – | –
O=C(CSC(=S)N1CCN(c2ccc([N+](=O)[O-])cc2)CC1)N1CCN(c2ncccn2)CC1 [Compound 2j, 2-[4-(Pyrimidin-2-yl)piperazin-1-yl]-2-oxoethyl 4-(4-nitrophenyl)piperazine-1-carbodithioate] | < 4.00 | – | 40.98 ± 0.94 | 4.64 | – | – | mix-typed inhibitor | 5.34 | 42.45 ± 1.18 | 29.70 ± 0.72 | 20.19 ± 0.64 | 16.05 ± 0.40 | 11.53 ± 0.29 | selective MAO-A inhibitory activity; also recorded: selective MAO-A enzyme inhibitors
O=C(CSC(=S)N1CCN(Cc2ccccc2)CC1)N1CCN(c2ncccn2)CC1 [Compound 2k] | < 3.00 | 13.08 ± 0.56 | 5.87 ± 0.22 | < 3.00 | 19.81 ± 0.59 | 6.15 ± 0.18 | – | – | – | – | – | – | – | –
Cc1ccc(CN2CCN(C(=S)SCC(=O)N3CCN(c4ncccn4)CC3)CC2)cc1 [Compound 2l, 2-[4-(Pyrimidin-2-yl)piperazin-1-yl]-2-oxoethyl 4-(4-methylbenzyl)piperazine-1-carbodithioate] | – | – | 15.00 ± 0.68 | < 3.00 | 32.31 ± 0.86 | 15.38 ± 0.61 | – | – | – | – | – | – | – | –
O=C(CSC(=S)N1CCN(C(c2ccccc2)c2ccccc2)CC1)N1CCN(c2ncccn2)CC1 [Compound 2m, 2-[4-(Pyrimidin-2-yl)piperazin-1-yl]-2-oxoethyl 4-benzhydrylpiperazine-1-carbodithioate] | < 4.00 | – | 40.00 ± 0.99 | 4.62 | – | – | – | – | 33.65 ± 0.93 | 28.16 ± 0.87 | 21.88 ± 0.74 | 15.77 ± 0.68 | 10.62 ± 0.41 | selective MAO-A inhibitory activity; also recorded: selective MAO-A enzyme inhibitors
O=C(CSC(=S)N1CCN(c2ncccn2)CC1)N1CCN(c2ncccn2)CC1 [Compound 2n, 2-[4-(Pyrimidin-2-yl)piperazin-1-yl]-2-oxoethyl 4-(pyrimidin-2-yl)piperazine-1-carbodithioate] | < 3.00 | 29.51 ± 0.74 | 22.95 ± 0.69 | < 3.00 | 31.25 ± 0.94 | 25.00 ± 0.62 | – | – | – | – | – | – | – | –
